Data reported in ChEMBL document CHEMBL1151660, “Carotenoids of tunicates. III. The structural elucidation of two new marine carotenoids, amarouciaxanthin A and B” (1985).
≈ marks a conversion by molar mass, not a printed value.

Tests used:
P388 = test: Cytotoxicity against mouse P388 cells after 4 days; type: functional; details: P388, 96 h, read-out: ED50 (the source's name)
L1210 = test: Cytotoxicity against mouse L1210 cells after 4 days; type: functional; details: L1210, 96 h, read-out: ED50 (the source's name)

Compound | EC50 (P388) [µg/mL] | EC50 (L1210) [µg/mL]
CC1=C(C#C/C(C)=C/C=C/C(C)=C/C=C/C=C(C)/C=C/C=C(\C)C(=O)C[C@@]23O[C@]2(C)C[C@@H](O)CC3(C)C)C(C)(C)C[C@H](O)C1 [HALOCYNTHIAXANTHIN] | 12.5 (≈ 20.9 µM) | 25 (≈ 41.7 µM)
CC1=CC(=O)CC(C)(C)[C@@]1(O)CC(=O)/C(C)=C/C=C/C(C)=C/C=C/C=C(C)/C=C/C=C(\C)C#CC1=C(C)C[C@@H](O)CC1(C)C [AMAROUCIAXANTHIN B] | 300 (≈ 503 µM) | 100 (≈ 168 µM)
CC1=CC(=O)CC(C)(C)[C@@]1(O)CC(=O)/C(C)=C/C=C/C(C)=C/C=C/C=C(C)/C=C/C=C(\C)C=C=C1C(C)(C)C[C@H](O)C[C@@]1(C)O [AMAROUCIAXANTHIN A] | 150 (≈ 244 µM) | 50 (≈ 81.3 µM)
